Each compound was assayed against human Nav1.8 (Homo sapiens (Human), UniProt Q9Y5Y9) (assay: Nav1.8 Qube automated patch-clamp assay). Conditions: human Nav1.8 stably expressed in HEK 293 cells, whole-cell voltage clamp, room temperature; read-out: IC50 (nM) in the Nav 1.8 Qube Assay.
Chain of human Nav1.8 (Q9Y5Y9 whole entry): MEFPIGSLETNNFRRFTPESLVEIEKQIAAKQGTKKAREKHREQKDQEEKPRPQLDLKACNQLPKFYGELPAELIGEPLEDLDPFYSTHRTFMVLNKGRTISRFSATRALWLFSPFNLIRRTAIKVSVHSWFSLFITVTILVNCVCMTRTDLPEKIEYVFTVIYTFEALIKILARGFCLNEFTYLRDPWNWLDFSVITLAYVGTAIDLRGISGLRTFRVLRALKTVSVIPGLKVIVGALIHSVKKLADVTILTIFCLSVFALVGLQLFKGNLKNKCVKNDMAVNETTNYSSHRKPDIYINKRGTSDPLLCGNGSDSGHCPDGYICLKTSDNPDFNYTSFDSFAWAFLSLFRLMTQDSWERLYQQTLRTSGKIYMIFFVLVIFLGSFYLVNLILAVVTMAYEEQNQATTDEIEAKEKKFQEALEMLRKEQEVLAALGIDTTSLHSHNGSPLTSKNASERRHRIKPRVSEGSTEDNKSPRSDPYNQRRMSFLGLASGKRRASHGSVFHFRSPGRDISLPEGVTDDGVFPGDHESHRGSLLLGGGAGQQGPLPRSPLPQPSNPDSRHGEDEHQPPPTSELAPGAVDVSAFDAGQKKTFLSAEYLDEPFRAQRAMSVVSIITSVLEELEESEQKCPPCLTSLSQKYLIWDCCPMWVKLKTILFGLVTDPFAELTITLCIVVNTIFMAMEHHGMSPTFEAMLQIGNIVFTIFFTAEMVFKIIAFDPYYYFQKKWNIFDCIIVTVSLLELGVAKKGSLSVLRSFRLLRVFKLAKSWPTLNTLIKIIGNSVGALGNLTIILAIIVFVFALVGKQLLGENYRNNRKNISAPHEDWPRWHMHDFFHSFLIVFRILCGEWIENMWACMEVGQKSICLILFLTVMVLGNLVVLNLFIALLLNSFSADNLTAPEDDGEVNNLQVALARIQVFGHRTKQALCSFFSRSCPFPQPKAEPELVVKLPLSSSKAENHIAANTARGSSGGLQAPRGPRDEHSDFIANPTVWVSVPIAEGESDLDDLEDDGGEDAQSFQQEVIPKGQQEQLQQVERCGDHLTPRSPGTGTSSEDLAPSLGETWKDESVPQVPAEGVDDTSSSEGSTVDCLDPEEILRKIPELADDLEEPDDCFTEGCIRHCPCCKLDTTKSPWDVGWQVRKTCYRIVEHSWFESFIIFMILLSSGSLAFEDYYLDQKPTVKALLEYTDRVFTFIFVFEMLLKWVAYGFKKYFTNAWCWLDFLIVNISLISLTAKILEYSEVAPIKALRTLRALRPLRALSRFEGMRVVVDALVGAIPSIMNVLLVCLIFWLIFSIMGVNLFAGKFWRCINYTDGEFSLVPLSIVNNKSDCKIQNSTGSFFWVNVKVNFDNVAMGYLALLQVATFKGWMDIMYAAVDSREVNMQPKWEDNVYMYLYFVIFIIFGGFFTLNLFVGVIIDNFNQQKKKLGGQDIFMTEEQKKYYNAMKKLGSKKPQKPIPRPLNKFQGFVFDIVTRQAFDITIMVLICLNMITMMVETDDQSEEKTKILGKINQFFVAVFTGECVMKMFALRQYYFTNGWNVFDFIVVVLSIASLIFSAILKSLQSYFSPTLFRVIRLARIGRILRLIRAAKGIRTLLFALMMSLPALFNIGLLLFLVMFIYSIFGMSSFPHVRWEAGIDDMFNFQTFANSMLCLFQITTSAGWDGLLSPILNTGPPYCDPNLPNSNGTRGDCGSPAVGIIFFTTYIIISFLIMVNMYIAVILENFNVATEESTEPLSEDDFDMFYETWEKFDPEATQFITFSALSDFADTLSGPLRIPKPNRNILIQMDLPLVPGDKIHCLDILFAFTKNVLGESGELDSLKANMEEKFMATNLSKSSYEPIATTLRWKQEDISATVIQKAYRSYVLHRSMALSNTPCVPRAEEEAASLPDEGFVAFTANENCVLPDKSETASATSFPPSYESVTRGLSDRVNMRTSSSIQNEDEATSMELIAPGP
Format: cell-based
Procedure: Qube® Assay Experimental Procedure Compounds were tested on human Nav1.8 and Nav1.5 channels stably expressed in human embryo kidney (HEK) 293 cells. Sodium current measurements on Qube® were conducted as follows: automated 384-well patch-clamp assays on the Qube® platform (Sophion Biosciences) were used to measure the inhibition of sodium flow through human Nav1.8 and Nav1.5 channels. Whole-cell voltage-clamp recordings were performed in QChips® (Sophion Biosciences) at room temperature. Nav1.8 current measurements on Qube® were obtained as follows: Nav1.8 currents were elicited with a 10 second 1 Hertz (Hz) pulse train from a holding potential of −90 millivolts (mV), delivered to the cells once per minute in the control condition (DMSO only) and after compound addition. The 1 hertz pulse train stimulation consisted often test pulses to 10 millivolt (mV) for 20 milliseconds (ms), each of which was followed by a 980 millisecond repolarization to −67 millivolts. At the end of the 10 second pulse train stimulation, a 5 second hyperpolarization step to −100 millivolt (mV) was used to recover Nav1.8 from fast inactivation. The peak currents elicited by the 1st and 10th test pulses were used to determine IC50 values for resting inhibition and inactivated state inhibition. Nav1.5 current measurements on Qube® were obtained as follows: Nav1.5 currents were elicited with a 20 second 3 Hertz pulse train in the control condition (DMSO only) and after compound addition. The pulse train consisted of sixty 20 millisecond test pulses to 0 millivolt from a holding potential of −80 millivolt (mV). The average peak currents elicited by the last 3 test pulses were used to determine IC50 values for Nav1.5 inhibition.
The following buffers were used for the Qube® recordings: External buffer for Nav1.8 Qube® recording: 150 NaCl, 2 CaCl2, 5 KCl, 1 Mg Cl2, 10 HEPES, 12 Dextrose; External buffer for Qube® Nav1.5 recording: 120 N-Methyl-D-Glucamine, 40 NaCl, 1 KCl, 2.7 CaCl2), 5 HEPES, 0.5 MgCl2; and Internal buffer for Qube® recording: 120 CsF, 30 CsCl, 10 EGTA, 5 HEPES, 5 NaF, 2 MgCl2.
For all Qube® experiments offline analysis was used to determine percent inhibition as a function of drug concentration. IC50 values were determined by fitting to the Hill equation.
Work on `CC1CN(c2ncc(C(F)(F)F)cc2C(=O)Nc2ccnc(S(N)(=O)=O)c2)CCC(C(F)(F)F)O1` (single isomer, unassigned) [Example 121, 2-((2R,7S or 2S.7R)-2-methyl-7-(trifluoromethyl)-1,4-oxazepan-4-yl)-N-(2-sulfamoylpyridin-4-yl)-5-(trifluoromethyl)nicotinamide] yielded an IC50 of 58 nM.
`CC[C@@H]1CN(c2ncc(C(F)(F)F)cc2C(=O)Nc2ccnc(S(N)(=O)=O)c2)C[C@@H](C(F)(F)F)O1` (single isomer, unassigned) [Example 133, 2-((2R,6S or 2S,6R)-2-ethyl-6-(trifluoromethyl)morpholino)-N-(2-sulfamoylpyridin-4-yl)-5-(trifluoromethyl)nicotinamide] showed an IC50 of 12 nM.
With `CC[C@H]1CN(c2ncc(C(F)(F)F)cc2C(=O)Nc2ccnc(S(N)(=O)=O)c2)C[C@H](C(F)(F)F)O1` (single isomer, unassigned) [Example 134, 2-((2S,6R or 2R,6S)-2-ethyl-6-(trifluoromethyl)morpholino)-N-(2-sulfamoylpyridin-4-yl)-5-(trifluoromethyl)nicotinamide] the IC50 was 155 nM.
In the case of `C[C@@H]1CN(c2nc(C3CCC3)c(Cl)cc2C(=O)Nc2ccnc(S(N)(=O)=O)c2)C[C@@H](C(F)(F)F)O1` (single isomer, unassigned) [Example 160, 5-chloro-6-cyclobutyl-2-((2R,6S or 2S,6R)-2-methyl-6-(trifluoromethyl)morpholino)-N-(2-sulfamoylpyridin-4-yl)nicotinamide], the IC50 is reported as 9.2 nM.
For `C[C@H]1CN(c2nc(C3CCC3)c(Cl)cc2C(=O)Nc2ccnc(S(N)(=O)=O)c2)C[C@H](C(F)(F)F)O1` (single isomer, unassigned) [Example 161, 5-chloro-6-cyclobutyl-2-((2S,6R or 2R,6S)-2-methyl-6-(trifluoromethyl)morpholino)-N-(2-sulfamoylpyridin-4-yl)nicotinamide], the IC50 was 63 nM.
Work on `C[C@@H]1CN(c2nc(C3CCC3)ccc2C(=O)Nc2ccnc(S(N)(=O)=O)c2)C[C@@H](C(F)(F)F)O1` (single isomer, unassigned) [Example 167, 6-cyclobutyl-2-((2R,6S or 2S,6R)-2-methyl-6-(trifluoromethyl)morpholino)-N-(2-sulfamoylpyridin-4-yl)nicotinamide] yielded an IC50 of 52 nM.
For `C[C@H]1CN(c2nc(C3CCC3)ccc2C(=O)Nc2ccnc(S(N)(=O)=O)c2)C[C@H](C(F)(F)F)O1` (single isomer, unassigned) [Example 168, 6-cyclobutyl-2-((2S,6R or 2R,6S)-2-methyl-6-(trifluoromethyl)morpholino)-N-(2-sulfamoylpyridin-4-yl)nicotinamide], the IC50 was 17 nM.
For `NS(=O)(=O)c1cc(NC(=O)c2cc(C(F)(F)F)cnc2N2CCCC(F)(F)CC2)ccn1` [Example 13, 2-(4,4-difluoroazepan-1-yl)-N-(2-sulfamoylpyridin-4-yl)-5-(trifluoromethyl)nicotinamide], the IC50 was 4.1 nM.
`Cc1nc(N2CCC(F)(F)CC2)c(C(=O)Nc2ccnc(S(N)(=O)=O)c2)cc1C1CCC1` [Example 15, 5-cyclobutyl-2-(4,4-difluoropiperidin-1-yl)-6-methyl-N-(2-sulfamoylpyridin-4-yl)nicotinamide] was tested, and the IC50 was 6.5 nM.
For `Cc1nc(N2CCC(F)(F)CC2)c(C(=O)Nc2ccnc(S(N)(=O)=O)c2)cc1C#CC1CC1` [Example 16, 5-(cyclopropylethynyl)-2-(4,4-difluoropiperidin-1-yl)-6-methyl-N-(2-sulfamoylpyridin-4-yl)nicotinamide], the IC50 was 12 nM.
`Cc1ccc(C(=O)Nc2ccnc(S(N)(=O)=O)c2)c(N2CCCC(F)(F)CC2)n1` [Example 17, 2-(4,4-difluoroazepan-1-yl)-6-methyl-N-(2-sulfamoylpyridin-4-yl)nicotinamide] gave an IC50 of 3.1 nM.
Compound `NS(=O)(=O)c1cc(NC(=O)c2ccc(CC3CC3)nc2N2CCCC(F)(F)CC2)ccn1` [Example 18, 6-(cyclopropylmethyl)-2-(4,4-difluoroazepan-1-yl)-N-(2-sulfamoylpyridin-4-yl)nicotinamide] has an IC50 of 0.9 nM.
`Cc1cc(C(=O)Nc2ccnc(S(N)(=O)=O)c2)c(N2CCCC(F)(F)CC2)nc1C` [Example 19, 2-(4,4-difluoroazepan-1-yl)-5,6-dimethyl-N-(2-sulfamoylpyridin-4-yl)nicotinamide] gave an IC50 of 1.6 nM.
`NS(=O)(=O)c1cc(NC(=O)c2cc(Cl)c(C3CC3)nc2N2CCCC(F)(F)CC2)ccn1` [Example 21, 5-chloro-6-cyclopropyl-2-(4,4-difluoroazepan-1-yl)-N-(2-sulfamoylpyridin-4-yl)nicotinamide] was tested, and the IC50 was 4.5 nM.
`NS(=O)(=O)c1cc(NC(=O)c2ccc(C3CC3)nc2N2CCCC(F)(F)CC2)ccn1` [Example 22, 6-cyclopropyl-2-(4,4-difluoroazepan-1-yl)-N-(2-sulfamoylpyridin-4-yl)nicotinamide] was tested, and the IC50 was 3 nM.
`NS(=O)(=O)c1cc(NC(=O)c2cc(Cl)c(C3CCC3)nc2N2CCCC(F)(F)CC2)ccn1` [Example 23, 5-chloro-6-cyclobutyl-2-(4,4-difluoroazepan-1-yl)-N-(2-sulfamoylpyridin-4-yl)nicotinamide] gave an IC50 of 2.6 nM.
For `O=C(Nc1cnn(S(=O)(=O)C2CC2)c1)c1cc(C(F)(F)F)cnc1N1CCCC(F)(F)CC1` [Example 36, N-[1-(cyclopropylsulfonyl)-1H-pyrazol-4-yl]-2-(4,4-difluoroazepan-1-yl)-5-(trifluoromethyl)pyridine-3-carboxamide], the IC50 was 147 nM.
`NS(=O)(=O)c1cc(NC(=O)c2cc(CC3CC3)cnc2N2CCCC(F)(F)CC2)ccn1` [Example 46, 5-(cyclopropylmethyl)-2-(4,4-difluoroazepan-1-yl)-N-(2-sulfamoylpyridin-4-yl)nicotinamide] gave an IC50 of 1 nM.
Compound `Cc1nc(N2C[C@@H](C)C(F)(F)[C@@H](C)C2)c(C(=O)Nc2ccnc(S(N)(=O)=O)c2)cc1Cl` [Example 53, 5-chloro-2-[(3S,5R)-4,4-difluoro-3,5-dimethyl-1-piperidyl]-6-methyl-N-(2-sulfamoyl-4-pyridyl)pyridine-3-carboxamide] has an IC50 of 0.8 nM.
`NS(=O)(=O)c1cc(NC(=O)c2ccc(C(F)(F)F)nc2N2CCCC(F)(F)CC2)ccn1` [Example 132, 2-(4,4-difluoroazepan-1-yl)-N-(2-sulfamoylpyridin-4-yl)-6-(trifluoromethyl)nicotinamide] showed an IC50 of 5.3 nM.
`NS(=O)(=O)c1cc(NC(=O)c2ccc(Cl)nc2N2CCCC(F)(F)CC2)ccn1` [Example 138, 6-chloro-2-(4,4-difluoroazepan-1-yl)-N-(2-sulfamoyl-4-pyridyl)pyridine-3-carboxamide] showed an IC50 of 5.8 nM.
Work on `C[C@@H]1CN(c2ncc(C(F)(F)F)cc2C(=O)Nc2ccnc(S(C)(=O)=O)c2)C[C@H](C)C1(F)F` [Example 147, 2-((3S,5R)-4,4-difluoro-3,5-dimethylpiperidin-1-yl)-N-(2-(methylsulfonyl)pyridin-4-yl)-5-(trifluoromethyl)nicotinamide] yielded an IC50 of 22 nM.
`C[C@@H]1CN(c2ncc(C(F)(F)F)cc2C(=O)Nc2ccnc(C(N)=O)c2)C[C@H](C)C1(F)F` [Example 156, 4-(2-((3S,5R)-4,4-difluoro-3,5-dimethylpiperidin-1-yl)-5 (trifluoromethyl)nicotinamido)picolinamide] gave an IC50 of 58 nM.
`C[C@@H]1CN(c2nc(C3CCC3)ccc2C(=O)Nc2ccnc(S(N)(=O)=O)c2)C[C@H](C)C1(F)F` [Example 166, 6-cyclobutyl-2-((3S,5R)-4,4-difluoro-3,5-dimethylpiperidin-1-yl)-N-(2-sulfamoylpyridin-4-yl)nicotinamide] showed an IC50 of 13 nM.
Work on `C[C@@H]1CN(c2nc(C3CCC3)c(Cl)cc2C(=O)Nc2ccnc(S(N)(=O)=O)c2)C[C@H](C)C1(F)F` [Example 169, 5-chloro-6-cyclobutyl-2-((3S,5R)-4,4-difluoro-3,5-dimethylpiperidin-1-yl)-N-(2-sulfamoylpyridin-4-yl)nicotinamide] yielded an IC50 of 6.9 nM.
`Cc1nc(N2CCCC(F)(F)CC2)c(C(=O)Nc2ccnc(S(N)(=O)=O)c2)cc1Cl` [Example 172, 5-chloro-2-(4,4-difluoroazepan-1-yl)-6-methyl-N-(2-sulfamoylpyridin-4-yl)nicotinamide] was tested, and the IC50 was 0.3 nM.
In the case of `NS(=O)(=O)c1cc(NC(=O)c2cc(OC(F)(F)F)cnc2N2CCCC(F)(F)CC2)ccn1` [Example 177, 2-(4,4-difluoroazepan-1-yl)-N-(2-sulfamoylpyridin-4-yl)-5-(trifluoromethoxy)nicotinamide], the IC50 is reported as 2.8 nM.
With `Cc1nc(N2CCCC(F)(F)CC2)c(C(=O)Nc2ccnc(S(N)(=O)=O)c2)cc1C(F)(F)F` [Example 184, 2-(4,4-difluoroazepan-1-yl)-6-methyl-N-(2-sulfamoylpyridin-4-yl)-5-(trifluoromethyl)nicotinamide] the IC50 was 0.5 nM.

Reference: patent publication US11377438B2, “2-amino-n-heteroaryl-nicotinamides as Nav1.8 inhibitors” (Merck Sharp & Dohme Corp., priority 2018, dated 2022)
